# Measurements published in patent USRE38257E1, “Piperdine derivatives and hypotensives containing the same” (Ajinomoto Co., Inc., priority 1988, dated 2003).
# Tested on: male spontaneously hypertensive rats
# Experiment: Decrease in systolic blood pressure in spontaneously hypertensive rats after intravenous bolus injection, indirect (tail-cuff) method
# Assay type: in vivo, rat
# Conditions: for Decrease in systolic blood pressure (mmHg) time after administration (hour) 0.5: 0.5 hour after administration; for Decrease in systolic blood pressure (mmHg) time after administration (hour) 4: 4 hours after administration
# Procedure: As test animals, four male spontaneously hypertensive rats (weight 400 to 440 g) that were sufficiently adapted for feeding and in which hypertension was confirmed were used.
# Physiological saline aqueous solution containing 2.5% Nicolle and 2.5% ethanol of sample was intravenously administered by bolus injection at a dose of 1 ml per 1 kg of body weight. Systolic blood pressure after administration was measured by the indirect (tail-cuff) method.
SMILES,Decrease in systolic blood pressure (mmHg) time after administration (hour) 0.5 (dose 10 mg/kg i.v. bolus) [mmHg],Decrease in systolic blood pressure (mmHg) time after administration (hour) 4 (dose 10 mg/kg i.v. bolus) [mmHg],further results
"CC(C)C(C#N)(CCCN1CCC(=C2c3ccccc3C=Cc3ccccc32)CC1)c1ccc(Cl)c(Cl)c1.Cl (stereo not drawn) [Example 42, 5-(4-(5H-Dibenzo[a,d]cyclohepten-5-ylidene)-1-piperidinyl)-2-(3,4-dichlorophenyl)-2-isopropylvaleronitrile hydrochloride]",−66,−14,–
"Cl.N#CC(CCCCl)(CCCN1CCC(=C2c3ccccc3C=Cc3ccccc32)CC1)c1ccccc1 (stereo not drawn) [Example 52, 2-(3-Chloropropyl)-5-(4-(5H-dibenzo[a,d]cyclohepten-5-ylidene)-1-piperidinyl)-2-phenylvaleronitrile hydrochloride]",−23,−9,–
"Cl.N#CC(CCCN1CCC(=C2c3ccccc3C=Cc3ccccc32)CC1)c1cccc(C(F)(F)F)c1 (stereo not drawn) [Example 59, 5-(4-(5H-Dibenzo[a,d]cyclohepten-5-ylidene)-1-piperidinyl)-2-(3-trifluoromethylphenyl)valeronitrile hydrochloride]",−87,−21,–
"CC(C)C(C#N)(CCCN1CCC(=C2c3ccccc3C=Cc3ccccc32)CC1)c1cccc(C(F)(F)F)c1.Cl (stereo not drawn) [Example 60, 5-(4-(5H-Dibenzo[a,d]cyclohepten-5-ylidene)-1-piperidinyl)-2-isopropyl-2-(3-trifluoromethylphenyl)valeronitrile hydrochloride]",−121,−48,–
"CC(CC(=O)c1ccccc1)N1CCC(=C2c3ccccc3C=Cc3ccccc32)CC1.Cl (stereo not drawn) [Example 100, 3-(4-(5H-Dibenzo[a,d]cyclohepten-5-ylidene)-1-piperidinyl)butyrophenone hydrochloride]",−35,−5,–
"Cl.OC(CCCN1CCC(=C2c3ccccc3C=Cc3ccccc32)CC1)c1ccccc1 (stereo not drawn) [Example 101, 4-(4-(5H-Dibenzo[a,d]cyclohepten-5-ylidene)-1-piperidinyl)-1-hydroxy-1-phenylbutane hydrochloride]",−89,−14,–
"Cl.OC(CCN1CCC(=C2c3ccccc3C=Cc3ccccc32)CC1)c1ccc(F)cc1 (stereo not drawn) [Example 107, 3-(4-(5H-Dibenzo[a,d]cyclohepten-5-ylidene)-1-piperidinyl)-1-hydroxy-1-(4-fluorophenyl)propane hydrochloride]",−88,−11,–
"Cl.OC(CCCN1CCC(=C2c3ccccc3C=Cc3ccccc32)CC1)c1ccc(F)cc1 (stereo not drawn) [Example 108, 4-(4-(5H-Dibenzo[a,d]cyclohepten-5-ylidene)-1-piperidinyl)-1-hydroxy-1-(4-fluorophenyl)butane hydrochloride]",−126,−50,–
"Cl.Fc1ccccc1CN1CCC(=C2c3ccccc3C=Cc3ccccc32)CC1 [Example 111, 4-(5H-Dibenzo[a,d]cyclohepten-5-ylidene)-1-(2-fluorobenzyl)piperidine hydrochloride]",−98,−13,–
"Cl.Fc1cccc(CN2CCC(=C3c4ccccc4C=Cc4ccccc43)CC2)c1 [Example 112, 4-(5H-Dibenzo[a,d]cyclohepten-5-ylidene)-1-(3-fluorobenzyl)piperidine hydrochloride]",−16,0,–
"Cl.Fc1ccc(CN2CCC(=C3c4ccccc4C=Cc4ccccc43)CC2)cc1 [Example 113, 4-(5H-Dibenzo[a,d]cyclohepten-5-ylidene)-1-(4-fluorobenzyl)piperidine hydrochloride]",–,–,Decrease in systolic blood pressure (mmHg) time after administration (hour) 0.5 (dose 1 mg/kg i.v. bolus): −151 mmHg; Decrease in systolic blood pressure (mmHg) time after administration (hour) 4 (dose 1 mg/kg i.v. bolus): −81 mmHg
"Cl.FC(F)(F)c1cccc(CN2CCC(=C3c4ccccc4C=Cc4ccccc43)CC2)c1 [Example 115, 4-(5H-Dibenzo[a,d]cyclohepten-5-ylidene)-1-(3-trifluoromethylbenzyl)piperidine hydrochloride]",−53,−19,–
"COc1ccccc1CN1CCC(=C2c3ccccc3C=Cc3ccccc32)CC1.Cl [Example 117, 4-(5H-Dibenzo[a,d]cyclohepten-5-ylidene)-1-(2-methoxybenzyl)piperidine hydrochloride]",−143,−25,–
"COc1cccc(CN2CCC(=C3c4ccccc4C=Cc4ccccc43)CC2)c1.Cl [Example 118, 4-(5H-Dibenzo[a,d]cyclohepten-5-ylidene)-1-(3-methoxybenzyl)piperidine hydrochloride]",−129,−24,–
"COc1ccc(CN2CCC(=C3c4ccccc4C=Cc4ccccc43)CC2)cc1.Cl [Example 119, 4-(5H-Dibenzo[a,d]cyclohepten-5-ylidene)-1-(4-methoxybenzyl)piperidine hydrochloride]",−34,−5,–
"Cl.Fc1c(F)c(F)c(CN2CCC(=C3c4ccccc4C=Cc4ccccc43)CC2)c(F)c1F [Example 120, 4-(5H-Dibenzo[a,d]cyclohepten-5-ylidene)-1-pentafluorobenzylpiperidine hydrochloride]",–,–,Decrease in systolic blood pressure (mmHg) time after administration (hour) 0.5 (dose 3 mg/kg i.v. bolus): −17 mmHg; Decrease in systolic blood pressure (mmHg) time after administration (hour) 4 (dose 3 mg/kg i.v. bolus): −12 mmHg
Cl.Fc1ccc(C2(CCCN3CCC(=C4c5ccccc5C=Cc5ccccc54)CC3)OCCO2)cc1 [Example 124],−90,−20,–
"Cl.O=C(CCCN1CCC(=C2c3ccccc3C=Cc3ccccc32)CC1)c1ccc(F)cc1 [Example 125, 4-(4-(5H-Dibenzo[a,d]cyclohepten-5-ylidene)-1-piperidinyl)-4′-fluorobutyrophenone hydrochloride]",−93,−14,–
